According to publication PMC3914206:

Legend:
panel of 442 kinases [1] = target: T1, panel of 442 kinases (Homo sapiens, UniProt O76039); type: binding; conditions: Compound Concentration 10 µM
T1 construct: purchased KINOMEscan
T1 sequence (O76039 1-960): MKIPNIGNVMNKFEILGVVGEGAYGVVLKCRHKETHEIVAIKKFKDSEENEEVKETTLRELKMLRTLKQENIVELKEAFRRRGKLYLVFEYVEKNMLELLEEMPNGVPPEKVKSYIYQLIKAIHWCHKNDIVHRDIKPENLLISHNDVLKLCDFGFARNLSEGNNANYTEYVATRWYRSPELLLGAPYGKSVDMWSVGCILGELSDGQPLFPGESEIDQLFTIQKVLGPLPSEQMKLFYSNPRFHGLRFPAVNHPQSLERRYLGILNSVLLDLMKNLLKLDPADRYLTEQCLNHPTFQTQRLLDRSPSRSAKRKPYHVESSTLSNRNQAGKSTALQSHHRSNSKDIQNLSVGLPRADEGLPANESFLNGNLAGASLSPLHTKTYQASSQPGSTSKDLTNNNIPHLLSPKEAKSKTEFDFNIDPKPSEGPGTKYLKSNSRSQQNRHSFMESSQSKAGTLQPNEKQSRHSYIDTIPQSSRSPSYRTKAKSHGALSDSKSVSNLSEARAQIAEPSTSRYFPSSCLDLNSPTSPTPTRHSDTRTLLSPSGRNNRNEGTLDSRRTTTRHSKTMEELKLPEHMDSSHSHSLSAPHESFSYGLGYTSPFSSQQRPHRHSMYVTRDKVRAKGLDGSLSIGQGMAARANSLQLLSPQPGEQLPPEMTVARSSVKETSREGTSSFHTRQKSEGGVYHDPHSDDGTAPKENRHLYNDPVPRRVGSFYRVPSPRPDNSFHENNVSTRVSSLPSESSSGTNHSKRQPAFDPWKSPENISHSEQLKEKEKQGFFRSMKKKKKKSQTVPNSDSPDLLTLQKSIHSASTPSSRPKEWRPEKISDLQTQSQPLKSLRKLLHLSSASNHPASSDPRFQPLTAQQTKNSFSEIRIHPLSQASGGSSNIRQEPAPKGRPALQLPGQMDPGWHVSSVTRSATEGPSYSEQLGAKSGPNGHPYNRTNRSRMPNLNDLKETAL
Description: (§1) We assessed the selectivity of members of this scaffold using the KINOMEscan methodology across a near comprehensive panel of 442 kinases [[18,27]].

panel of 442 kinases [2] = target: T2, panel of 442 kinases (Homo sapiens, UniProt Q9NYL2); type: binding; conditions: kinase ZAK; compound concentration 10 µM
T2 construct: purchased KINOMEscan
T2 sequence (Q9NYL2 whole entry): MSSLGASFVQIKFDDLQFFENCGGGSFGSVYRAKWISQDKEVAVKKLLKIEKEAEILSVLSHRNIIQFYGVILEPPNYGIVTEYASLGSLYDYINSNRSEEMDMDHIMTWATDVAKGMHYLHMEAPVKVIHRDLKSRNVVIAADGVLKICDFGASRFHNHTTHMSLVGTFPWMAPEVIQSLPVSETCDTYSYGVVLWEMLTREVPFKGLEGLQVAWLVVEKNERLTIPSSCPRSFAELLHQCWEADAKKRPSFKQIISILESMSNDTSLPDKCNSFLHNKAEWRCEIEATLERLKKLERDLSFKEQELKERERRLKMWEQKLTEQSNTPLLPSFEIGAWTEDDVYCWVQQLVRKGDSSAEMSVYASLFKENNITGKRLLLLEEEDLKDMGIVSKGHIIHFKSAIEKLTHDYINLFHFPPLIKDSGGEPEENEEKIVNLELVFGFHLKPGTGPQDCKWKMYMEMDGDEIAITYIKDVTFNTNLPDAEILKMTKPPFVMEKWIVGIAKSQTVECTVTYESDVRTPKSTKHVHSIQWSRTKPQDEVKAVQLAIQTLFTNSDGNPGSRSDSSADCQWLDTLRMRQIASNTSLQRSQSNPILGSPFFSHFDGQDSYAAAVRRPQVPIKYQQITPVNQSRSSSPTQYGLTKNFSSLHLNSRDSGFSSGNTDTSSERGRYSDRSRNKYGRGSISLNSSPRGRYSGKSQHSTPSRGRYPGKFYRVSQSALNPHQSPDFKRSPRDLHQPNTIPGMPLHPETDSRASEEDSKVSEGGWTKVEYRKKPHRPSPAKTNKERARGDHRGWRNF
Description: as §1

Structure (SMILES)	KINOMEscan: CDKL5 (panel of 442 kinases [1])	% Ctrl, ZAK (panel of 442 kinases [2]) [% Ctrl]
COc1cc(C(=O)N2CCC(N3CCN(C)CC3)CC2)ccc1Nc1ncc2c(n1)N(C1CCCC1)c1ccccc1C(=O)N2C [Compound 25, 11-cyclopentyl-2-((2-methoxy-4-(4-(4-methylpiperazin-1-yl)piperidine-1-carbonyl)phenyl)amino)-5-methyl-5H-benzo[e]pyrimido[5,4-b][1,4]diazepin-6(11H)-one]	93	100
CCOc1cc(C(=O)N2CCC(N3CCN(C)CC3)CC2)ccc1Nc1ncc2c(n1)N(C1CCCC1)c1ccccc1C(=O)N2C [Compound 26]	100	100
COc1cc(C(=O)N2CCC(N3CCN(C)CC3)CC2)ccc1Nc1ncc2c(n1)N1CCc3cccc(c31)C(=O)N2C [Compound 24]		88
COc1cc(C(=O)N2CCC(N3CCN(C)CC3)CC2)ccc1Nc1ncc2c(n1)N(C)c1ccccc1C(=O)N2C [15 (LRRK2-IN-1)]	100	99
